Earlier results in patent publication US11747352B2 (Concordia University, Inc., priority 2017, dated 2023).
Where two headings read alike, the source gives them in different places.

Tests used:
[1] = cited from earlier work
[2] = cited from earlier work; remark: listed apart in the source

**Q.** Which “HALF LIFE” value ([1]; Table CYP1A2) does the source give for `COc1ccc2cccc(CCNC(C)=O)c2c1` [Agomelatine] here?
**A.** Its value is 1 to 2 h.

**Q.** With `C=CCc1ccccc1OCC(O)CNC(C)C` (stereo not shown) [Alprenolol] as the molecule, how does the “HALF LIFE” value ([1]; Table CYP2D6) read?
**A.** Its value is 2 to 3 h.

**Q.** Which “ORAL BIOAVAILABILITY” value ([2]; Table CYP2C9) does the source give for `CN(C)CCC=C1c2ccccc2CCc2ccccc21` [Amitriptyline] here?
**A.** Its value is 30-60% ^.

**Q.** What about the “ORAL BIOAVAILABILITY” value ([2]; Table CYP2D6) of the same molecule?
**A.** The value was ~43-46% ^.

**Q.** What about the “HALF LIFE” value ([1]; Table CYP1A2) of the same molecule?
**A.** The value was ~13 to 36 h.

**Q.** And the “HALF LIFE” value ([1]; Table CYP2D6)?
**A.** Its value is ~13 to 36 h.

**Q.** Which “ORAL BIOAVAILABILITY” value ([2]; Table CYP3A4) does the source give for `CCOC(=O)C1=C(COCCN)NC(C)=C(C(=O)OC)C1c1ccccc1Cl` (stereo not shown) [Amlodipine] here?
**A.** Its value is 64-90% ^.

**Q.** Which “ORAL BIOAVAILABILITY” value ([2]; in vivo, po) does the source give for `CC(N)Cc1ccccc1` (stereo not shown) [Amphetamine] here?
**A.** The value was 100%.

**Q.** For `C[C@@H](O[C@H]1OCCN(Cc2n[nH]c(=O)[nH]2)[C@H]1c1ccc(F)cc1)c1cc(C(F)(F)F)cc(C(F)(F)F)c1` [Aprepitant], which “ORAL BIOAVAILABILITY” value ([2]; Table CYP3A4) is on record?
**A.** Its value is 60-65% ^.

**Q.** With `COC(=O)N[C@H](C(=O)N[C@@H](Cc1ccccc1)[C@@H](O)CN(Cc1ccc(-c2ccccn2)cc1)NC(=O)[C@@H](NC(=O)OC)C(C)(C)C)C(C)(C)C` [Atazanavir] as the molecule, how does the “ORAL BIOAVAILABILITY” value ([2]; Table CYP3A4) read?
**A.** The value was 60-68% ^.

**Q.** For `CC(C)C[C@H]1C(=O)N2CCC[C@H]2[C@]2(O)O[C@](NC(=O)[C@@H]3C=C4c5cccc6[nH]c(Br)c(c56)C[C@H]4N(C)C3)(C(C)C)C(=O)N12` [Bromocriptine], which “ORAL BIOAVAILABILITY” value ([2]; Table CYP3A4) is on record?
**A.** Its value is 65-95% ^.

**Q.** With `CCCC1O[C@@H]2C[C@H]3[C@@H]4CCC5=CC(=O)C=C[C@]5(C)[C@H]4[C@@H](O)C[C@]3(C)[C@]2(C(=O)CO)O1` (stereo partly shown) [Budesonide] as the molecule, how does the “ORAL BIOAVAILABILITY” value ([2]; Table CYP3A4) read?
**A.** Its value is 9-21%^.

**Q.** What does the source list for `COc1ccccc1OCCNCC(O)COc1cccc2[nH]c3ccccc3c12` (stereo not shown) [Carvedilol]?
**A.** ORAL BIOAVAILABILITY ([2]; Table CYP2D6): 25-35% ^; HALF LIFE ([1]; Table CYP2D6): 6 to 10 h

**Q.** For `COc1cc(N)c(Cl)cc1C(=O)NC1CCN(CCCOc2ccc(F)cc2)CC1OC` (stereo not shown) [Cisapride], which “ORAL BIOAVAILABILITY” value ([2]; Table CYP3A4) is on record?
**A.** Its value is 35-65% ^.

**Q.** With `CN1CCN(C2=Nc3cc(Cl)ccc3Nc3ccccc32)CC1` [Clozapine] as the molecule, how does the “HALF LIFE” value ([1]; Table CYP1A2) read?
**A.** Its value is 4 to 66 h.

**Q.** With `COc1ccc2c3c1O[C@H]1[C@@H](O)C=C[C@H]4[C@@H](C2)N(C)CC[C@@]341` [Codeine] as the molecule, how does the “HALF LIFE” value ([1]; in vivo) read?
**A.** Its value is 2.5 to 3 h.

**Q.** For `CN(C)CCC=C1c2ccccc2C=Cc2ccccc21` [Cyclobenzaprine], which “HALF LIFE” value ([1]; Table CYP1A2) is on record?
**A.** The value was 8 to 37 h.

**Q.** For `CCN[C@@H](C)Cc1cccc(C(F)(F)F)c1` [Dexfenfluramine], which “HALF LIFE” value ([1]; in vivo) is on record?
**A.** Its value is 17 to 20 h.

**Q.** With `CN[C@@H](C)Cc1ccccc1` [Dextromethamphetamine] as the molecule, how does the “HALF LIFE” value ([1]; Table CYP2D6) read?
**A.** Its value is 12 h.

**Q.** With `COc1ccc2c(c1)[C@]13CCCC[C@@H]1[C@H](C2)N(C)CC3` [Dextromethorphan] as the molecule, how does the “HALF LIFE” value ([1]; in vivo) read?
**A.** Its value is 1.4 to 3.9 h.

**Q.** Which “HALF LIFE” value ([1]; Table CYP2C9) does the source give for `O=C(O)Cc1ccccc1Nc1c(Cl)cccc1Cl` [Diclofenac] here?
**A.** The value was 1.9 to 2.2 h.

**Q.** With `CNCC[C@H](Oc1cccc2ccccc12)c1cccs1` [Duloxetine] as the molecule, how does the “ORAL BIOAVAILABILITY” value ([2]; Table CYP2D6) read?
**A.** Its value is 30-80% ^.

**Q.** With `O=C1Nc2ccc(Cl)cc2[C@@](C#CC2CC2)(C(F)(F)F)O1` [Efavirenz] as the molecule, how does the “ORAL BIOAVAILABILITY” value ([2]; Table CYP3A4) read?
**A.** Its value is 40-45% ^.

**Q.** Which “ORAL BIOAVAILABILITY” value ([2]; Table CYP2D6) does the source give for `COc1ccc(C(=O)Nc2ccccc2CCC2CCCCN2C)cc1` (stereo not shown) [Encainide] here?
**A.** Its value is 25-90% ^.

**Q.** What about the “HALF LIFE” value ([1]; Table CYP2D6) of the same molecule?
**A.** The value was 11.3 h.

**Q.** Which “ORAL BIOAVAILABILITY” value ([2]; Table CYP3A4) does the source give for `CC[C@H]1OC(=O)[C@H](C)[C@@H](O[C@H]2C[C@@](C)(OC)[C@@H](O)[C@H](C)O2)[C@H](C)[C@@H](O[C@@H]2O[C@H](C)C[C@H](N(C)C)[C@H]2O)[C@](C)(O)C[C@@H](C)C(=O)[C@H](C)[C@@H](O)[C@]1(C)O` [Erythromycin] here?
**A.** Its value is 30-65% ^.

**Q.** With `C#C[C@]1(O)CC[C@H]2[C@@H]3CCc4cc(O)ccc4[C@H]3CC[C@@]21C` [Ethinyl Estradiol] as the molecule, how does the “ORAL BIOAVAILABILITY” value ([2]; Table CYP3A4) read?
**A.** Its value is 38-48% ^.

**Q.** Which “ORAL BIOAVAILABILITY” value ([2]; Table CYP3A4) does the source give for `CCOC(=O)C1=C(C)NC(C)=C(C(=O)OC)C1c1cccc(Cl)c1Cl` (stereo not shown) [Felodipine] here?
**A.** The value was 13-20% ^.

**Q.** With `O=C(NCC1CCCCN1)c1cc(OCC(F)(F)F)ccc1OCC(F)(F)F` (stereo not shown) [Flecainide] as the molecule, how does the “ORAL BIOAVAILABILITY” value ([2]; Table CYP2D6) read?
**A.** The value was 70-95% ^.

**Q.** For `CNCCC(Oc1ccc(C(F)(F)F)cc1)c1ccccc1` (stereo not shown) [Fluoxetine], which “ORAL BIOAVAILABILITY” value ([2]; Table CYP2C9) is on record?
**A.** Its value is 60-80% ^.

**Q.** What about the “ORAL BIOAVAILABILITY” value ([2]; Table CYP2D6) of the same molecule?
**A.** Its value is 60-80% ^.

**Q.** What about the “HALF LIFE” value ([1]; Table CYP2C9) of the same molecule?
**A.** Its value is 96 to 140 h.

**Q.** What about the “HALF LIFE” value ([1]; Table CYP2D6) of the same molecule?
**A.** Its value is 96 to 140 h.

**Q.** For `COCCCC/C(=N\OCCN)c1ccc(C(F)(F)F)cc1` [Fluvoxamine], which “HALF LIFE” value ([1]; Table CYP1A2) is on record?
**A.** The value was ~14 to 16 h.

**Q.** With `CCC1=C(C)CN(C(=O)NCCc2ccc(S(=O)(=O)NC(=O)N[C@H]3CC[C@H](C)CC3)cc2)C1=O` [Glimepiride] as the molecule, how does the “HALF LIFE” value ([1]; Table CYP2C9) read?
**A.** The value was 5 to 9.2 h.

**Q.** Which “HALF LIFE” value ([1]; Table CYP1A2) does the source give for `O=C(CCCN1CCC(O)(c2ccc(Cl)cc2)CC1)c1ccc(F)cc1` [Haloperidol] here?
**A.** The value was 14 to 37 h.

**Q.** What about the “HALF LIFE” value ([1]; Table CYP2D6) of the same molecule?
**A.** Its value is 14 to 37 h.

**Q.** With `COc1ccc2c3c1O[C@H]1C(=O)CC[C@H]4[C@@H](C2)N(C)CC[C@]314` [Hydrocodone] as the molecule, how does the “HALF LIFE” value ([1]; in vivo) read?
**A.** Its value is 7 to 9 h.

**Q.** With `COc1cc(C(C)=O)ccc1OCCCN1CCC(c2noc3cc(F)ccc23)CC1` [Iloperidone] as the molecule, how does the “HALF LIFE” value ([1]; Table CYP2D6) read?
**A.** Its value is 18 to 33 h.

**Q.** For `CN(C)CCCN1c2ccccc2CCc2ccccc21` [Imipramine], which “ORAL BIOAVAILABILITY” value ([2]; Table CYP2D6) is on record?
**A.** Its value is 94-96% ^.

**Q.** What does the source list for `CCCCC1=NC2(CCCC2)C(=O)N1Cc1ccc(-c2ccccc2-c2nnn[nH]2)cc1` [Irbesartan]?
**A.** ORAL BIOAVAILABILITY ([2]; Table CYP2C9): 60-80% ^; HALF LIFE ([1]; Table CYP2C9): 11 to 15 h

**Q.** What does the source list for `COC(=O)C1=C(C)NC(C)=C(C(=O)OC(C)C)C1c1cccc2nonc12` (stereo not shown) [Isradipine]?
**A.** ORAL BIOAVAILABILITY ([2]; Table CYP3A4, CR): CR: 15-24% ^; ORAL BIOAVAILABILITY ([2]; Table CYP3A4, IR): IR: 90-95% ^

**Q.** Which results are given for `CNC1(c2ccccc2Cl)CCCCC1=O` (stereo not shown) [Ketamine]?
**A.** BIOAV[…] ([2]; in vivo, im): IM: 90-93%, PO: 16%; HALF LIFE ([1]; in vivo): 2 to 3 h

**Q.** Which “ORAL BIOAVAILABILITY” value ([2]; Table CYP2D6) does the source give for `COc1ccc2c(c1)N(C[C@H](C)CN(C)C)c1ccccc1S2` [Levomepromazine] here?
**A.** Its value is 50-60% ^.

**Q.** For `COc1ccc2[nH]cc(CCNC(C)=O)c2c1` [Melatonin], which “HALF LIFE” value ([1]; Table CYP1A2) is on record?
**A.** The value was 0.583 to 0.833 h.
